# Laboratory results: the Kinase Knowledgebase extract (Sharma et al. 2016)
# Legend:
# [1] = target: PIK3CG (human) (UniProt P48736); assay: Assessment of PIK3CG Kinase Activity
# [2] = target: PIK3CA (human) (UniProt P42336); assay: Assessment of PIK3CA Kinase Activity
# Chain of PIK3CA (human) (P42336 whole entry, looked up): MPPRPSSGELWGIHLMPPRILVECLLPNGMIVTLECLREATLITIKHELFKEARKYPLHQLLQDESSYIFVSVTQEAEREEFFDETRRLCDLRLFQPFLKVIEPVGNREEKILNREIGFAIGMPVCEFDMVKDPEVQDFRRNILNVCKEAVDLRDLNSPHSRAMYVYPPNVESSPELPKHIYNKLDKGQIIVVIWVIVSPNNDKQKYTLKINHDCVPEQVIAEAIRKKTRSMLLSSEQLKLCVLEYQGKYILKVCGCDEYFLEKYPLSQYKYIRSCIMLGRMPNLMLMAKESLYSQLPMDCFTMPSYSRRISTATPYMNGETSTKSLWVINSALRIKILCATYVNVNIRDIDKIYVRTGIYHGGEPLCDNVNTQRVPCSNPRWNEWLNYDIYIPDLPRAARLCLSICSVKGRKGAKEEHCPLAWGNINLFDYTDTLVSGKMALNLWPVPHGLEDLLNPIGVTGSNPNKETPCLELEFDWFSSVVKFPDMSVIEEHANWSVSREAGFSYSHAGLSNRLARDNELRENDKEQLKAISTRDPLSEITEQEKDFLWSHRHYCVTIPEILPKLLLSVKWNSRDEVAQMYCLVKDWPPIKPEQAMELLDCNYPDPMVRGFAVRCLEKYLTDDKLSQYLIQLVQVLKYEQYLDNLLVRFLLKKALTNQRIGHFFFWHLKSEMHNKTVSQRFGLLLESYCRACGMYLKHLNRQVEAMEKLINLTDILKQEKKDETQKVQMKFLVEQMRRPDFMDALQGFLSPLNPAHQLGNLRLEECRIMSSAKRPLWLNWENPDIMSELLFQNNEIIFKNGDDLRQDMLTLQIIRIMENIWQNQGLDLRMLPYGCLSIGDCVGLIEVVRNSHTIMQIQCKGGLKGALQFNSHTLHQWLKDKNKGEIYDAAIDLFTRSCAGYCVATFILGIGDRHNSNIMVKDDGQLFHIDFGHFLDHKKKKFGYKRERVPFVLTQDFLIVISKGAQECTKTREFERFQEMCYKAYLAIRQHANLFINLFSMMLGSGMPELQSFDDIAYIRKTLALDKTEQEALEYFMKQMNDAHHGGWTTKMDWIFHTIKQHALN
# Chain of PIK3CG (human) (P48736 whole entry, looked up): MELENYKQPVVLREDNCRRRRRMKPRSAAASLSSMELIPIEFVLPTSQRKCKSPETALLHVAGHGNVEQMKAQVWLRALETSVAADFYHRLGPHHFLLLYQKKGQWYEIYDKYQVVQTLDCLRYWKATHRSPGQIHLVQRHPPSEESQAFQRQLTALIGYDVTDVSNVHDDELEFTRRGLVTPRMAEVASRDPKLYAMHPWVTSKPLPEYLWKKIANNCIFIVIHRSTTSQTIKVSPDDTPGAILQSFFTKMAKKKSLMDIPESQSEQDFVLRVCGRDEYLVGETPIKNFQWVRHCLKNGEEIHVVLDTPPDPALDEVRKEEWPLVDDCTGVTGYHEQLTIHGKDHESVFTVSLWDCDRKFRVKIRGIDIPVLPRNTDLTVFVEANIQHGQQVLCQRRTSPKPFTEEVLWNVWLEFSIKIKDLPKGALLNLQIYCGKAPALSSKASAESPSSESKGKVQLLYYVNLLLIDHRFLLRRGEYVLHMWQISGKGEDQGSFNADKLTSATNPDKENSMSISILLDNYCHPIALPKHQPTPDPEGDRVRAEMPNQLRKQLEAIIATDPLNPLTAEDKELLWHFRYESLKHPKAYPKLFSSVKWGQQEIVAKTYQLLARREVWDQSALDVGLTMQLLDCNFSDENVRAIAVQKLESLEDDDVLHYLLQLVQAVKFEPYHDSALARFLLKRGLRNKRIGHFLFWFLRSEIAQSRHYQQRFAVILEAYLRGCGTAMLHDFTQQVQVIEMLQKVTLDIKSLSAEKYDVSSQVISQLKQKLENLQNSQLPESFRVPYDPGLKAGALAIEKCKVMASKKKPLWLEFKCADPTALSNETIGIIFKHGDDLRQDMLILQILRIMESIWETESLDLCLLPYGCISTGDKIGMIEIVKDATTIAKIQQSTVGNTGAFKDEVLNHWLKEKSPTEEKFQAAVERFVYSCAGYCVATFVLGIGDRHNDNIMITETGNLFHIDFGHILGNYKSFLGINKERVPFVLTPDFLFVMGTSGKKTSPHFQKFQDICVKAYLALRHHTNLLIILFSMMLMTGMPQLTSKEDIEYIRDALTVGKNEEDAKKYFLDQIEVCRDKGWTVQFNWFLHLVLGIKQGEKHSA
SMILES,Ki [1],Ki [2]
COc1cncc(-c2ccc3nc(Nc4ccc(CC(N)=O)cc4)sc3c2)c1,< 100 nM,–
COc1cncc(-c2ccc3nc(Nc4nc(C)cs4)sc3c2)c1,< 100 nM,–
COc1cc(-c2ccc3nc(Nc4cccnc4)sc3n2)cnc1OC,< 100 nM,< 100 nM
COc1cncc(-c2ccc3nc(Nc4nncs4)sc3c2)c1,< 100 nM,–
COc1cc(-c2ccc3nc(Nc4ncccn4)sc3c2)cnc1OC,< 100 nM,< 100 nM
COc1cncc(-c2ccc3nc(Nc4cccc(CO)c4)sc3c2)c1,–,< 100 nM
COc1cncc(-c2ccc3nc(Nc4ccc(N)cc4)sc3c2)c1,< 100 nM,–
COCCn1cc(Nc2nc3ccc(-c4cncc(C(F)(F)F)c4)cc3s2)cn1,< 100 nM,< 100 nM
COc1cccc(Nc2nc3ccc(-c4cnc(OC)c(OC)c4)cc3s2)n1,< 100 nM,< 100 nM
CCN(CC)C(=O)c1cccc(Nc2nc3ccc(-c4cncc(OC)c4)cc3s2)n1,–,< 100 nM
COc1cncc(-c2ccc3nc(Nc4ccncn4)sc3c2)c1,< 100 nM,< 100 nM
COc1cc(-c2ccc3nc(Nc4cnccn4)sc3c2)cnc1N,< 100 nM,< 100 nM
COc1cncc(-c2ccc3nc(Nc4ccccn4)sc3c2)c1,< 100 nM,–
CCOc1cc(-c2ccc3nc(Nc4cnccn4)sc3n2)cnc1OCC,< 100 nM,< 100 nM
COc1cncc(-c2ccc3nc(Nc4nccs4)sc3c2)c1,< 100 nM,< 100 nM
COc1ncc(-c2ccc3nc(Nc4cccnc4)sc3n2)cc1OC(C)C,< 100 nM,< 100 nM
CCn1cc(Nc2nc3ccc(-c4cncc(C(F)(F)F)c4)cc3s2)cn1,–,< 100 nM
COc1cc(-c2ccc3nc(Nc4ccccn4)sc3c2)cnc1OC,< 100 nM,< 100 nM
Nc1ccc(Nc2nc3ccc(-c4cncc(C(F)(F)F)c4)cc3s2)cn1,< 100 nM,–
COc1cc(-c2ccc3nc(Nc4nnc(C)s4)sc3c2)cnc1OC,< 100 nM,< 100 nM
COc1cncc(-c2ccc3nc(Nc4ccc(N(C)C(C)=O)cc4)sc3c2)c1,< 100 nM,–
COc1cncc(-c2ccc3nc(Nc4ccn(C)n4)sc3c2)c1,< 100 nM,< 100 nM
FC(F)(F)c1cncc(-c2ccc3nc(Nc4cnn(CC5CCCO5)c4)sc3c2)c1 (centres undefined),< 100 nM,< 100 nM

SMILES,Ki [1],Ki [2]
COc1cc(-c2ccc3nc(Nc4cncc(C)n4)sc3c2)cnc1OC,< 100 nM,< 100 nM
COc1cc(-c2ccc3nc(Nc4cc[nH]n4)sc3c2)cnc1OC,< 100 nM,< 100 nM
COc1cc(-c2ccc3nc(Nc4cccc(C)n4)sc3c2)cnc1OC,< 100 nM,< 100 nM
Cn1cc(Nc2nc3ccc(-c4cncc(C(F)(F)F)c4)cc3s2)cn1,< 100 nM,–
COc1cncc(-c2ccc3nc(Nc4cccc(NC(C)=O)c4)sc3c2)c1,< 100 nM,–
COc1cc(-c2ccc3nc(Nc4cnccn4)sc3n2)cnc1OC,< 100 nM,–
COc1cncc(-c2ccc3nc(Nc4cnccn4)sc3c2)c1,< 100 nM,< 100 nM
CCOc1ncc(-c2ccc3nc(Nc4cccnc4)sc3n2)cc1OC,< 100 nM,< 100 nM
COc1cc(-c2ccc3nc(Nc4cccnc4)sc3c2)cnc1OC,< 100 nM,< 100 nM
CCOc1cc(-c2ccc3nc(Nc4cnccn4)sc3c2)cnc1OCC,< 100 nM,< 100 nM
CNC(=O)Cn1cc(Nc2nc3ccc(-c4cncc(C(F)(F)F)c4)cc3s2)cn1,< 100 nM,< 100 nM
COc1ncc(-c2ccc3nc(Nc4cnccn4)sc3n2)cc1OC(C)C,< 100 nM,< 100 nM
FC(F)(F)c1cncc(-c2ccc3nc(Nc4cnccn4)sc3c2)c1,–,< 100 nM
CCOc1ncc(-c2ccc3nc(Nc4cnccn4)sc3n2)cc1OC,< 100 nM,< 100 nM
COc1cncc(-c2ccc3nc(Nc4cccc(S(C)(=O)=O)c4)sc3c2)c1,< 100 nM,–
CCc1ncc(-c2ccc3nc(Nc4cnccn4)sc3c2)cc1OC,< 100 nM,–
CCOc1cc(-c2ccc3nc(Nc4cccnc4)sc3n2)cnc1OCC,< 100 nM,–
CCOc1ncc(-c2ccc3nc(Nc4cnccn4)sc3c2)cc1OC,< 100 nM,< 100 nM
CCN(CC)C(=O)c1cccc(Nc2nc3ccc(-c4cncc(OC)c4)cc3s2)c1,< 100 nM,–
COc1cncc(-c2ccc3nc(Nc4cc[nH]n4)sc3c2)c1,< 100 nM,< 100 nM
COc1cc(-c2ccc3nc(Nc4cnccn4)sc3c2)cnc1C,< 100 nM,< 100 nM
FC(F)(F)c1cncc(-c2ccc3nc(Nc4cccnc4)sc3n2)c1,< 100 nM,–
COc1cncc(-c2ccc3nc(Nc4cccc(C)n4)sc3c2)c1,< 100 nM,–

SMILES,Ki [1],Ki [2]
Cc1ccc(Nc2nc3ccc(-c4cncc(C(F)(F)F)c4)cc3s2)nn1,< 100 nM,–
COc1cc(-c2ccc3nc(Nc4nccc(C)n4)sc3c2)cnc1OC,< 100 nM,< 100 nM
CCCCNS(=O)(=O)c1cccc(Nc2nc3ccc(-c4cncc(OC)c4)cc3s2)c1,< 100 nM,–
CCOc1cncc(Nc2nc3ccc(-c4cnc(OC)c(OC)c4)cc3s2)n1,< 100 nM,< 100 nM
CCCn1ccc(Nc2nc3ccc(-c4cnc(OC)c(OC)c4)cc3s2)n1,< 100 nM,< 100 nM
COc1cncc(-c2ccc3nc(Nc4ccc5nc[nH]c5c4)sc3c2)c1,< 100 nM,< 100 nM
COc1cncc(-c2ccc3nc(Nc4ccc5c(c4)N(C(C)=O)CC5)sc3c2)c1,< 100 nM,–
COc1cncc(-c2ccc3nc(Nc4cccnc4)sc3c2)c1,< 100 nM,–
COc1cc(-c2ccc3nc(Nc4ccn(C)n4)sc3c2)cnc1OC,< 100 nM,< 100 nM
COc1cncc(-c2ccc3nc(Nc4cncc(C)n4)sc3c2)c1,< 100 nM,< 100 nM
CNC(=O)Cc1ccc(Nc2nc3ccc(-c4cncc(OC)c4)cc3s2)cc1,< 100 nM,–
COc1ncc(-c2ccc3nc(Nc4cnccn4)sc3c2)cc1OC(C)C,< 100 nM,< 100 nM
COc1cncc(-c2ccc3nc(Nc4ccc(C)nn4)sc3c2)c1,< 100 nM,< 100 nM
COc1cc(-c2ccc3nc(Nc4cnccn4)sc3c2)cnc1OC,< 100 nM,< 100 nM
COc1cc(-c2ccc3nc(Nc4ccncn4)sc3c2)cnc1OC,< 100 nM,< 100 nM
COc1cncc(Nc2nc3ccc(-c4cnc(OC)c(OC)c4)cc3s2)n1,< 100 nM,< 100 nM
COc1cncc(-c2ccc3nc(Nc4ccc(Cl)nn4)sc3c2)c1,< 100 nM,–
COc1cncc(-c2ccc3nc(Nc4cccnc4)sc3n2)c1,< 100 nM,–
COc1cc(-c2ccc3nc(Nc4ncc(C)s4)sc3c2)cnc1OC,< 100 nM,< 100 nM
O=C(O)Cn1cc(Nc2nc3ccc(-c4cncc(C(F)(F)F)c4)cc3s2)cn1,< 100 nM,< 100 nM
FC(F)(F)c1cncc(-c2ccc3nc(Nc4ccncn4)sc3c2)c1,< 100 nM,< 100 nM
CCOc1cc(-c2ccc3nc(Nc4cnccn4)sc3c2)cnc1OC,< 100 nM,< 100 nM
